These results are taken from ChEMBL document CHEMBL2016442, “Structure-activity studies of some berberine analogs as inhibitors of Toxoplasma gondii” (Bioorg Med Chem Lett, 2012).

Each structure is given as a SMILES string.

Data set [1] is described as follows: Cytotoxicity against human fibroblasts assessed as cell viability by microplate reader. The class given is cell-based, Fibroblast. The conditions noted are these: read-out: TD50 (the source's name).
Data set [2] deals with Toxoplasma gondii. The experiment in a line: Antiparasitic activity against Toxoplasma gondii ATCC 50839 infected in human fibroblasts assessed as inhibition of replication of tachyzoites after 4 days by bacterial beta-galactosidase assay. The class given is functional. Conditions: ATCC 50839, 96 h, read-out: ID50 (the source's name).
Data set [3] in a line: Therapeutic index, ratio of TD50 for human fibroblast cell to ID 50 for Toxoplasma gondii ATCC 50839. The class given is cell-based. Conditions: human fibroblast cells, read-out: TI.
The subject of data set [4] is Toxoplasma gondii. The experiment in a line: Ratio of trimethoprim ID50 to compound ID50 for Toxoplasma gondii ATCC 50839. The class given is functional.

As for `COc1ccc2cc3[n+](cc2c1O)CCc1cc2c(cc1-3)OCO2` [BERBERRUBINE], the CC50 in data set [1] stood at 81 µM. In the data set on Toxoplasma gondii [2], the IC50 was determined as 0.06 µM. Moreover, the selectivity ratio in data set [3] came out at 1300.
With `COc1ccc2cc3n(c(=O)c2c1OC)CCc1cc2c(cc1-3)OCO2` [OXYBERBERINE], the CC50 in data set [1] is 97 µM. Further, in the data set on Toxoplasma gondii [2], the IC50 is 12 µM. Also, in data set [3], the selectivity ratio amounted to 8.
As to `COc1ccc2cc3[n+](cc2c1OC)CCc1cc2c(cc1-3)OCO2` [BERBERINE], the CC50 in data set [1] is 0.85 µM. Further, the IC50 in the data set with Toxoplasma gondii [2] stood at 0.58 µM. Moreover, the Ratio with Toxoplasma gondii [4] is listed as 30. The selectivity ratio in data set [3] was determined as 1.5.
As for `CCOc1c(OC)ccc2cc3[n+](cc12)CCc1cc2c(cc1-3)OCO2`, the CC50 in data set [1] came out at 9.6 µM. Further, in the data set with Toxoplasma gondii [2], the IC50 came to 0.83 µM. Moreover, in data set [3], the selectivity ratio came out at 12.
Consider `COc1ccc2c(c1OC)CN1CCc3cc4c(cc3[C@@H]1C2)OCO4` [CANADINE], for which the CC50 in data set [1] was determined as 210 µM. In the data set on Toxoplasma gondii [2], the IC50 is 8.7 µM. In addition, the selectivity ratio in data set [3] worked out at 24.
As to `COc1cc(Cc2cnc(N)nc2N)cc(OC)c1OC` [TRIMETHOPRIM], the CC50 in data set [1] was over 500 µM. For the same molecule, the IC50 in the data set on Toxoplasma gondii [2] was 15 µM. In addition, the selectivity ratio in data set [3] is over 3.
Take `CCCCCC(=O)Oc1c(OC)ccc2cc3[n+](cc12)CCc1cc2c(cc1-3)OCO2`: the CC50 in data set [1] came out at 145 µM. Further, the IC50 in the data set with Toxoplasma gondii [2] was determined as 0.036 µM. In data set [3], the selectivity ratio was determined as 4000.
For the molecule `CCCC(=O)Oc1c(OC)ccc2cc3[n+](cc12)CCc1cc2c(cc1-3)OCO2`, the CC50 in data set [1] came out at 135 µM. For the same molecule, the IC50 in the data set with Toxoplasma gondii [2] came to 0.068 µM. Further, the selectivity ratio in data set [3] amounted to 2000.
For `CCCCCOc1c(OC)ccc2cc3[n+](cc12)CCc1cc2c(cc1-3)OCO2`, the CC50 in data set [1] is 5.9 µM. Moreover, the IC50 with Toxoplasma gondii [2] is 1.8 µM. Moreover, in data set [3], the selectivity ratio turned out to be 3.
As to `COc1ccc2cc3[n+](cc2c1OC(C)=O)CCc1cc2c(cc1-3)OCO2`, the CC50 in data set [1] was found to be 45 µM. In addition, the IC50 in the data set on Toxoplasma gondii [2] was 0.075 µM. In addition, in data set [3], the selectivity ratio is 600.
For `CCCCCCCOc1c(OC)ccc2cc3[n+](cc12)CCc1cc2c(cc1-3)OCO2` the same measures were 1.1 µM, 0.2 µM and 5.5.
For `COc1ccc2c(c1OC)C(C)N1CCc3cc4c(cc3C1=C2)OCO4` (stereo not given), in data set [1], the CC50 stood at 12 µM. Also, the IC50 in the data set with Toxoplasma gondii [2] was 4.2 µM. In addition, the selectivity ratio in data set [3] worked out at 3.
In the same order, the values of `COc1ccc2c(c1OC)CN1CCc3cc4c(cc3C1=C2)OCO4` [DIHYDROBERBERINE] are 41 µM, 0.65 µM and 63.
